Assay results published in ChEMBL document CHEMBL4418489, “FTO inhibitors” (2018).

Legend:
[1] = species: Homo sapiens; experiment: Selectivity index, ratio of IC50 for COMT (unknown origin) (test compound)/IC50 for FTO (unknown origin) (test compound) to IC50 for COMT (entacapone)/IC50 for FTO (entacapone)
[2] = molecular target: Alpha-ketoglutarate-dependent dioxygenase FTO (Homo sapiens, UniProt Q9C0B1); experiment: Inhibition of FTO (unknown origin) assessed as reduction in demethylation by measuring N6-mA and A level incubated for 2 hrs by HPLC-MS/MS analysis
Alpha-ketoglutarate-dependent dioxygenase FTO, sequence (Q9C0B1 whole entry): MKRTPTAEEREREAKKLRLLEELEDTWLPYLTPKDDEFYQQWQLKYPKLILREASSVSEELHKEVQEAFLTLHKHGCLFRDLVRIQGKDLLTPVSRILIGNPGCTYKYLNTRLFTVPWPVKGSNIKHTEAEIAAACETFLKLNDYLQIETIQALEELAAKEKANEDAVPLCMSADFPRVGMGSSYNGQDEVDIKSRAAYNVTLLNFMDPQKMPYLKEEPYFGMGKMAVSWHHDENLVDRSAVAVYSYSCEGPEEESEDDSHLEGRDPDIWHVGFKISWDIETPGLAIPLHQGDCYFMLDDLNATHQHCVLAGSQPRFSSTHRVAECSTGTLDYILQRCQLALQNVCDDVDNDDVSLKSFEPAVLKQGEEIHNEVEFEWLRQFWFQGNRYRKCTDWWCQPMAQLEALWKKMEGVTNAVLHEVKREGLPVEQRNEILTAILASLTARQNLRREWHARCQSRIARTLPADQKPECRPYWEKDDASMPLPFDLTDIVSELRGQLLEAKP

| Ratio IC50 [1] | IC50 [2] [µM] | Compound |
| --- | --- | --- |
| 1.65 | – | N#C/C(=C\c1cc(O)c(O)c([N+](=O)[O-])c1)C(=O)N1CCC1 |
| – | 3 | CCN(CC)C(=O)/C(C#N)=C/c1cc(O)c(O)c([N+](=O)[O-])c1 [ENTACAPONE] |
